In ChEMBL document CHEMBL1201862, “PubChem BioAssay data set” (2004):
Active and inactive are the calls of the source.

Columns and labels:
Bcl-2-like protein 10 = target: T1, Bcl-2-like protein 10 (Homo sapiens, UniProt Q9HD36); test: Bcl-B/TR3 peptide binding disruption – biochemical, fluorescence polarization, FITC-TR3 peptide, selectivity assay for Bfl-1 inhibitor project, primary screen (AID 748);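 also: fluorescence polarization from a fluorescein-labelled TR3 peptide binding purified Bcl-B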
T1 sequence (Q9HD36 whole entry): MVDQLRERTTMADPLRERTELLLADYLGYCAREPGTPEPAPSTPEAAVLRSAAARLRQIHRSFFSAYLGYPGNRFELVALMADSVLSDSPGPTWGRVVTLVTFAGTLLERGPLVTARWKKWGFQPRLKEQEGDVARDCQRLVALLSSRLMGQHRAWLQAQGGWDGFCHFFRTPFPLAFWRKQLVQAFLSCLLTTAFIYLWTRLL

Large T antigen = Large T antigen (Simian virus 40, UniProt P03070); type: functional, Betapolyomavirus macacae;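 also: Confirmatory-stage PubChem screen for compounds that inhibit SV40 T antigen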
HEK293 = test: cells; settings: Homo sapiens;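 also: cells exposed to compound for 14 hours overnight before viability readout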
[1] = target: Nucleotide-binding oligomerization domain-containing protein 2 (Homo sapiens, UniProt Q9HC29); test: PubChem AID 2334; type: functional
Tumor necrosis factor = Tumor necrosis factor (Homo sapiens, UniProt P01375); test: analog potency on TNFa NF-kB signaling – cell-based, revised, SAR follow-up (AID 2337); type: functional
[2] = target: T2, Nucleotide-binding oligomerization domain-containing protein 1 (Homo sapiens, UniProt Q9Y239); test: blockers of NOD1 pathway activity – revised, SAR follow-up (AID 2333); type: functional
T2 sequence (Q9Y239 whole entry): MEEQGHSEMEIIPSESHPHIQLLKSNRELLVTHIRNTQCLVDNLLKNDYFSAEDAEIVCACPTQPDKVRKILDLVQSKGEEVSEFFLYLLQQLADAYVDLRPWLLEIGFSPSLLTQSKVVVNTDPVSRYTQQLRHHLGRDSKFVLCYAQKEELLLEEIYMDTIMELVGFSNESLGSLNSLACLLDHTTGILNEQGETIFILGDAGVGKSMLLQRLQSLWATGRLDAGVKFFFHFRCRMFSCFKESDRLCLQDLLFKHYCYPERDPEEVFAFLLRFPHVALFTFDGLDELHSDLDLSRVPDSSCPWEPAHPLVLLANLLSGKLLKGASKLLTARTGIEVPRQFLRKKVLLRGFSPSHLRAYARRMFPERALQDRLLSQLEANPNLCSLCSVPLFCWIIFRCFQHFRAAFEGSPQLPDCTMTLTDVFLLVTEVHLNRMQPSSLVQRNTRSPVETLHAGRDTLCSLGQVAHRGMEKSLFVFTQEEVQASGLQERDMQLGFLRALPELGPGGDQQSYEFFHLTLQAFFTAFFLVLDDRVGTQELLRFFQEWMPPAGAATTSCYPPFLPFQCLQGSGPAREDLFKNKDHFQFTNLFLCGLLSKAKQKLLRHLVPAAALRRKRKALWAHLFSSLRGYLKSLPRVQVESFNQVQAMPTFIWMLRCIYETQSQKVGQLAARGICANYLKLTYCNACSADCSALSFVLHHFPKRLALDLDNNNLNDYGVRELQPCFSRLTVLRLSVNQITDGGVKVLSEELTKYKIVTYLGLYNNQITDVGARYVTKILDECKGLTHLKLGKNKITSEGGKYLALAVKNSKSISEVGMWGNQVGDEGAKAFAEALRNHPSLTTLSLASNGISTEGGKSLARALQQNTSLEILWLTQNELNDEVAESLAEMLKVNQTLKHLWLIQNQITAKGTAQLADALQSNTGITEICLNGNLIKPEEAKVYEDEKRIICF

[3] = target: T3, Carboxy-terminal domain RNA polymerase II polypeptide A small phosphatase 1 (Homo sapiens, UniProt Q9GZU7); test: CTDSP1 inhibitors, concentration-response, biochemical, absorbance readout, ultra-high-throughput screen actives (AID 540297); type: functional
T3 sequence (Q9GZU7 whole entry): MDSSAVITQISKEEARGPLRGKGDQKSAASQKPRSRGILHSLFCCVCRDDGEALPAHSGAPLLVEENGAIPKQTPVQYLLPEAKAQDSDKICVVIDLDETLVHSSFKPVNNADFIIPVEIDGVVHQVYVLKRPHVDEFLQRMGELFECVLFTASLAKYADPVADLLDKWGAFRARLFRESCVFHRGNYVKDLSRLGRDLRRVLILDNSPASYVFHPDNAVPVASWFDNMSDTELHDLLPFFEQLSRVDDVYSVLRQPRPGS

Genome polyprotein = Genome polyprotein (dengue virus type 2, UniProt P29990); test: flavivirus cap methylation enzyme inhibition – biochemical, confirmation dose response, primary screen (AID 588689); type: functional
Beta-galactosidase = Beta-galactosidase (Escherichia coli, UniProt Q8VNN2); test: detection-enzyme interference by beta-gal modulators – biochemical, E. coli enzyme, set 3, artefact control for CCR6 antagonist project, dose response (AID 504712); type: functional
[4] = target: Peroxisome proliferator-activated receptor gamma/Nuclear receptor coactivator 2 (Homo sapiens, UniProt P37231); type: functional;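 also: agonist potency for raising coactivator recruitment to the receptor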
[5] = target: Peroxisome proliferator-activated receptor gamma/Nuclear receptor coactivator 1 (Homo sapiens, UniProt P37231); type: functional;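 also: agonist potency as compounds enhance coactivator SRC-1 recruitment to PPARgamma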
[6] = target: Peroxisome proliferator-activated receptor gamma/Nuclear receptor corepressor 2 (Homo sapiens, UniProt P37231+Q9Y618); type: functional
[7] = target: Photoreceptor-specific nuclear receptor (Homo sapiens, UniProt Q9Y5X4); type: functional;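 also: potency for compounds that break the NR2E3 corepressor complex and count as activators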
[8] = target: Peroxisome proliferator-activated receptor gamma/Nuclear receptor coactivator 3 (Homo sapiens, UniProt P37231); type: functional;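 also: agonist potency for raising coactivator recruitment to the receptor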
[9] = Vero E6 cell cytotoxicity, dose response, cytotoxicity control for non-replicating M. tuberculosis project, secondary assay (AID 492998); type: functional, VeroE6; settings: Vero C1008
cells [10] = type: functional
[11] = target: T4, Zinc finger protein mex-5 (Caenorhabditis elegans, UniProt Q9XUB2); test: potency of MEX-5 RNA-binding blockers – biochemical, C. elegans, fluorescence polarization, dose response (AID 1960)
T4 sequence (Q9XUB2 whole entry): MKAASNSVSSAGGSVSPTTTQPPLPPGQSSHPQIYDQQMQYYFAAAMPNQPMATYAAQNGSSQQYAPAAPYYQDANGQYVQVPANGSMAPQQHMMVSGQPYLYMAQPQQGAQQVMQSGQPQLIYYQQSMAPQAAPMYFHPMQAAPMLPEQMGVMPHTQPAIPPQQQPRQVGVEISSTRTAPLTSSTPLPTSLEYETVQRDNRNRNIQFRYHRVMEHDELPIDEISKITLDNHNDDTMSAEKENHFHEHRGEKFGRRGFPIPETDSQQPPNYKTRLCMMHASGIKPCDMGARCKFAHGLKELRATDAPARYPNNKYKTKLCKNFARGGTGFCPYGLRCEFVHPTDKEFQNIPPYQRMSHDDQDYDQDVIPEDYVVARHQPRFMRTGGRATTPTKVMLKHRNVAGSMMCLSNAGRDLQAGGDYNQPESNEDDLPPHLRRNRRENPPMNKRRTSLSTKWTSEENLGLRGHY

[12] = THP-1 cell cytotoxicity, dose response, cytotoxicity control for non-replicating M. tuberculosis project (AID 489025); type: functional
[13] = HepG2 cell cytotoxicity, dose response, cytotoxicity control for non-replicating M. tuberculosis project (AID 489018); type: functional; settings: Mycobacterium tuberculosis
[14] = target: T5, RNA-binding protein pos-1 (Caenorhabditis elegans, UniProt G5EF15); test: disruptors of C. elegans POS-1 RNA interaction – biochemical, fluorescence polarization, dose response (AID 1964);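 also: purified POS-1 fused to maltose binding protein made in E. coli; potency of compounds blocking POS-1 binding to fluorescent RNA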
T5 sequence (G5EF15 whole entry): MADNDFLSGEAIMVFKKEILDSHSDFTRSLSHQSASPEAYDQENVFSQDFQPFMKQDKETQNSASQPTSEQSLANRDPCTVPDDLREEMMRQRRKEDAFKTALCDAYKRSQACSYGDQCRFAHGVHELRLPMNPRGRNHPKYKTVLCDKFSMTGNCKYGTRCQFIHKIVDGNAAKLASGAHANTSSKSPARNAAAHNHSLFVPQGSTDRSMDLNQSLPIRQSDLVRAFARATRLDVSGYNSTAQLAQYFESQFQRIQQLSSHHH

[15] = NIH3T3 cell viability loss – ATP luminescence, mouse fibroblasts, counter-screen, dose response (AID 2010); type: functional, cell-based;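 also: cells exposed to compound for about 90 hours before reading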
[16] = non-specific 3'UTR reporter inhibition in Clone20-Shn3RL – cell-based, Renilla luciferase, cherry-picked, counter-screen for Shn3 inhibitor project, dose response (AID 624133); type: functional
[17] = A cytotoxicity screen of small molecule inhibitors of the PhoP region in Salmonella typhi identified in the primary screen. [Related pubchem assays: 1850, 1864, 1985 ]; type: functional
[18] = reduction of Shn3 3'UTR-driven luciferase in osteoblasts – cell-based, Clone20 osteoblasts, firefly luciferase, cherry-picked, dose response (AID 624132); type: functional;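 also: firefly luciferase luminescence from reporter carrying the Shn3 3'UTR in osteoblasts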
[19] = loss of viability in HepG2 cells – cell-based, CellTiter-Glo, cherry-picked, cytotoxicity control for Shn3 inhibitor project, dose response (AID 624134); type: functional
[20] = Trypanosoma cruzi growth suppression in host cells – NIH3T3 host cells, beta-gal luminescence, confirmation (AID 2044); type: functional, cell-based;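 also: intracellular parasites grown in NIH/3T3 mouse fibroblasts as host cells; luminescent beta-galactosidase reporter signal from transgenic T. cruzi replicating inside host cells; inhibitors lower the luminescence signal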
X-box-binding protein 1 = target: T6, X-box-binding protein 1 (Homo sapiens, UniProt P17861); type: functional, Cricetulus griseus;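 also: confirmatory dose-response counter-screen serving a CHOP assay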
T6 sequence (P17861 whole entry): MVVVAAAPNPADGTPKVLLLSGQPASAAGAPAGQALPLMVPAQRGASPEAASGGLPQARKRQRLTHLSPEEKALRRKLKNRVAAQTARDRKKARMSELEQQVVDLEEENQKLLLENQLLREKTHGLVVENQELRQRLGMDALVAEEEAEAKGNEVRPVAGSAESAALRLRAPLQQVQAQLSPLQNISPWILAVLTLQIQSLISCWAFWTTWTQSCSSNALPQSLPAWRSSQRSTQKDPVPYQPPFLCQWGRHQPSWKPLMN

cells [21] = type: functional, cell-based
cells [22] = type: functional, cell-based; remark: listed apart in the source

Chain of Nucleotide-binding oligomerization domain-containing protein 2 (Q9HC29 whole entry, the tested form may be a part): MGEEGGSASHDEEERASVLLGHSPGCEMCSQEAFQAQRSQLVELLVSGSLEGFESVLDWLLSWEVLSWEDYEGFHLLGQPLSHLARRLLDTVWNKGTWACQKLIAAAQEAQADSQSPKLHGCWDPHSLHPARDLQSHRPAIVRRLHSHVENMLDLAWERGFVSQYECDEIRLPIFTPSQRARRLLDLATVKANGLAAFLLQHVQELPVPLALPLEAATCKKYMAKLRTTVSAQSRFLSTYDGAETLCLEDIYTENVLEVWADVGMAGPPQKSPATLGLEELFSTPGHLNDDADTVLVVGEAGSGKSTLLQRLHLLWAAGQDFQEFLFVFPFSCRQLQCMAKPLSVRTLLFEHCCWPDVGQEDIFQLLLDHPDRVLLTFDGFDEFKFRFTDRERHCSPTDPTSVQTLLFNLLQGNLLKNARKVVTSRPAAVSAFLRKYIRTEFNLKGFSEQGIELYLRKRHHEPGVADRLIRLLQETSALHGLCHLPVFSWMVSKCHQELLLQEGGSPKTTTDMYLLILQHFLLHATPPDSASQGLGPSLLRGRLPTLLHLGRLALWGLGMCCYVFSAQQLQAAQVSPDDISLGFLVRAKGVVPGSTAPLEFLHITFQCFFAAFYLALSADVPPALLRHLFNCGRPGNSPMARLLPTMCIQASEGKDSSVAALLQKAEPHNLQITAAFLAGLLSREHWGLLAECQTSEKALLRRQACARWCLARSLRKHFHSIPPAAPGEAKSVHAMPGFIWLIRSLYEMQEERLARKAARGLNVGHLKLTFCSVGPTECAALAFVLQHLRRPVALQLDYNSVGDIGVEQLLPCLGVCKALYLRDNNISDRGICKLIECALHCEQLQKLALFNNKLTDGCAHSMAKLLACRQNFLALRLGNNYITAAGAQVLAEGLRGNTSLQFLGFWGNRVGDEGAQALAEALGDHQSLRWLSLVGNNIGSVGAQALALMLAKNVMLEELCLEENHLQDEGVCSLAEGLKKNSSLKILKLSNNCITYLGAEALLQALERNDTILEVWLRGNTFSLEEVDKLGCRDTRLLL
Chain of Tumor necrosis factor (P01375 whole entry, the tested form may be a part): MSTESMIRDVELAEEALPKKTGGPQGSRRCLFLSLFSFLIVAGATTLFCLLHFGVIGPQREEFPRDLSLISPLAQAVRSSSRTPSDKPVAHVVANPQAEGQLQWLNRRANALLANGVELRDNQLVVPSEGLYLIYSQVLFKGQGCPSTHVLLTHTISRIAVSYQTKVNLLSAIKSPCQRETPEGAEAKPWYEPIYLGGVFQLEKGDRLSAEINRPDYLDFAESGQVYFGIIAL
Chain of Peroxisome proliferator-activated receptor gamma/Nuclear receptor corepressor 2 (P37231 whole entry): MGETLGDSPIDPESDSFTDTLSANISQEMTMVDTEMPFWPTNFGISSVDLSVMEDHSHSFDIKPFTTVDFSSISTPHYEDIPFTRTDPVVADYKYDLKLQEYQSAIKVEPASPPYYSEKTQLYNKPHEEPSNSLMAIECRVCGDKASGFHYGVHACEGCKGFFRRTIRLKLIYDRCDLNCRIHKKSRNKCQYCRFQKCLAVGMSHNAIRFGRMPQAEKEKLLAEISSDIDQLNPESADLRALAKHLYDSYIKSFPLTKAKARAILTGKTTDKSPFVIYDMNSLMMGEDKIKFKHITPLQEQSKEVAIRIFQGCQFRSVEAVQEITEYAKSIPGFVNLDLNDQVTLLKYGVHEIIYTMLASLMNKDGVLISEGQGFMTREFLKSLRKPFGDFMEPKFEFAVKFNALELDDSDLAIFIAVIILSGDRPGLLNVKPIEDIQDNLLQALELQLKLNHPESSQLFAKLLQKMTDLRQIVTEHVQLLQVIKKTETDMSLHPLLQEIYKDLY
Chain of Peroxisome proliferator-activated receptor gamma/Nuclear receptor corepressor 2 (Q9Y618 whole entry): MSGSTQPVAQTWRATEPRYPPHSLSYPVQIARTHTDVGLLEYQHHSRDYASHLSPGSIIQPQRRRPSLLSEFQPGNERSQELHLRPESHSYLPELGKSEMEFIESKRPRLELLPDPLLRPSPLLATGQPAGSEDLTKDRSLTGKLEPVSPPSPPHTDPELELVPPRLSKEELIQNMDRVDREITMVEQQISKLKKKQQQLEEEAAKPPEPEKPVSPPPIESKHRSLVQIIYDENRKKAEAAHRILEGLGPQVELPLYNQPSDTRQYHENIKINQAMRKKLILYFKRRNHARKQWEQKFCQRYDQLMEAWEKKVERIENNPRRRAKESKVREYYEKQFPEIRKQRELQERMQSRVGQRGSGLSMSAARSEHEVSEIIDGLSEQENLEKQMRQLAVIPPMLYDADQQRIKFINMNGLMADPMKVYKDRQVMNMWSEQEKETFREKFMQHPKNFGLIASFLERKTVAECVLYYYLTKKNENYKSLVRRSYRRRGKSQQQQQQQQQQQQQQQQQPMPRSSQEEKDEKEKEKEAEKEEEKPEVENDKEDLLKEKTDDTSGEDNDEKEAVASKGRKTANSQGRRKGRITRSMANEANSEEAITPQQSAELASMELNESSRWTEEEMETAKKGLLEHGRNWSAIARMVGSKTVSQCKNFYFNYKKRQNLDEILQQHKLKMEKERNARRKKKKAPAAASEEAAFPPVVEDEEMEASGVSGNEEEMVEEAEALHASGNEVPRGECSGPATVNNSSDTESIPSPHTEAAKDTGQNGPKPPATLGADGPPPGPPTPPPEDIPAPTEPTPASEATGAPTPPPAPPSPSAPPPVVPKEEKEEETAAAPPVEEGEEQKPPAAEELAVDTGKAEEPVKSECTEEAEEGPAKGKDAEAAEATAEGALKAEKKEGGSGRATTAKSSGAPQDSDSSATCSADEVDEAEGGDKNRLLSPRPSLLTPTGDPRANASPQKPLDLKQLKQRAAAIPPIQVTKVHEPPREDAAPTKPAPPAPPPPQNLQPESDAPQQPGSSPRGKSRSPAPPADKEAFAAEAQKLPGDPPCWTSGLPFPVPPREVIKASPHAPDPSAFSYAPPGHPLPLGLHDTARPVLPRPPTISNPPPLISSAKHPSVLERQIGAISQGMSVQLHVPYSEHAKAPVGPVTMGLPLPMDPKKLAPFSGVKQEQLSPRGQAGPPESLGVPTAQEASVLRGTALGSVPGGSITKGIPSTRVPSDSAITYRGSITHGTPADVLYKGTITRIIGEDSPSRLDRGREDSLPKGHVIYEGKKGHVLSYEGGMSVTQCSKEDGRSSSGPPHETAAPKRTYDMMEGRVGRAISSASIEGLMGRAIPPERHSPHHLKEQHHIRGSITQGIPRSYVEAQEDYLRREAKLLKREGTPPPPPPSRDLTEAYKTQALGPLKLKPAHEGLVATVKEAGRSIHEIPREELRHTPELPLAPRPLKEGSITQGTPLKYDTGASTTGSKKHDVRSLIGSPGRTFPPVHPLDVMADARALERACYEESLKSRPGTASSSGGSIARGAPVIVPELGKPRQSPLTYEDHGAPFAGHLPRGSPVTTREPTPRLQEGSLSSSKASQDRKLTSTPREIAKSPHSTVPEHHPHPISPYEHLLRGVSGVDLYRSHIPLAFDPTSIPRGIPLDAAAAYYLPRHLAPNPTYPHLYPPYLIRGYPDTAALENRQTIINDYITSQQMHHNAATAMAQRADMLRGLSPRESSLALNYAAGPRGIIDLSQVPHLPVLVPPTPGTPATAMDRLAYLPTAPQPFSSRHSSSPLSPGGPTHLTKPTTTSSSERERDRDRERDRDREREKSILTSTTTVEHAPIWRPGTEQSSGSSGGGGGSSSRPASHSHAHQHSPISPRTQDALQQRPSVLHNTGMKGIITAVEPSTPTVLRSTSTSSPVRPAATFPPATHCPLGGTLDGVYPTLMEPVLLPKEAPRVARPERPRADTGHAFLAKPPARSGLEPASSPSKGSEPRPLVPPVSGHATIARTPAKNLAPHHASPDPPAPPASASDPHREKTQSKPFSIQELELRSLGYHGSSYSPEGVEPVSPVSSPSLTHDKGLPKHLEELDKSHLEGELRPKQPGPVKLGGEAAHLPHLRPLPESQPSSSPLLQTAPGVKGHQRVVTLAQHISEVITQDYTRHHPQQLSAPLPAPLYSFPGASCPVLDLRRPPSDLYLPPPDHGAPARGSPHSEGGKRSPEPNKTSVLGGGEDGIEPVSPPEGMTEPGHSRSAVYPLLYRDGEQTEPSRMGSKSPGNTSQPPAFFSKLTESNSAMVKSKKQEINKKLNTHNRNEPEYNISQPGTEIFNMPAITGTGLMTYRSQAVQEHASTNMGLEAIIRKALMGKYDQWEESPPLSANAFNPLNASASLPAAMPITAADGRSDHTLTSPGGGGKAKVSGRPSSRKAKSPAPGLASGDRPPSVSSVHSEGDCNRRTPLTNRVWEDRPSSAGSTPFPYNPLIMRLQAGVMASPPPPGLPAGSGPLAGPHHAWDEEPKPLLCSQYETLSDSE
Chain of Large T antigen (P03070 whole entry): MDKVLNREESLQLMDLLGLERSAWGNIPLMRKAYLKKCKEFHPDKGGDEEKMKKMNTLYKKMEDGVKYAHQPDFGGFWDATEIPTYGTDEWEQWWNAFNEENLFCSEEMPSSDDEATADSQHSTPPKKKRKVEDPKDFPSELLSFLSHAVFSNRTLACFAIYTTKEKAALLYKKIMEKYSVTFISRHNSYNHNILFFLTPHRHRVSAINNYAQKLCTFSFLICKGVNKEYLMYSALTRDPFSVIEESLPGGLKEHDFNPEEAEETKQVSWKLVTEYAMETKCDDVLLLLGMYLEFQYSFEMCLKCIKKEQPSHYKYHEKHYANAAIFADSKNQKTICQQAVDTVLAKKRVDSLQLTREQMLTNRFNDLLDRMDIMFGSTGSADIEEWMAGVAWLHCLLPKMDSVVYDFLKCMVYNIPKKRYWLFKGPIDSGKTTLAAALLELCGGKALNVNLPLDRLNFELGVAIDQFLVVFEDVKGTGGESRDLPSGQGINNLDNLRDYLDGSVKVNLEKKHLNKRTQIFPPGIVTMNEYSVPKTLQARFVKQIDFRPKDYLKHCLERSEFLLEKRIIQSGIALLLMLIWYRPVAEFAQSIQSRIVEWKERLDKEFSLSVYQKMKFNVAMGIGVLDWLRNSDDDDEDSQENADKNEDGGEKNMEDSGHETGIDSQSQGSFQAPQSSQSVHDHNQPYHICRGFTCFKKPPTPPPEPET

SMILES: O=c1c2cc(N3CCOCC3)ccc2[nH]c(=S)n1CCCN1CCCCCC1
- IC50 (Bcl-2-like protein 10): 88 µM (inactive)

SMILES: Nc1ccc(OCC(O)C[n+]2ccc(CCS(=O)(=O)[O-])cc2)cc1 (stereo not drawn)
- IC50 (Large T antigen): 17.9 µM (active)

SMILES: CC1(C)Cc2c(sc(NC(=O)C(=O)N3CCCCC3)c2C(=O)O)CO1
- IC50 (HEK293): > 20 µM (inactive)
- IC50 [1]: > 20 µM (inactive)
- IC50 (Tumor necrosis factor): > 20 µM (inactive)
- IC50 [2]: > 20 µM (inactive)

SMILES: O=C(CN1C(=O)/C(=C2/SC(=S)N(CCS(=O)(=O)O)C2=O)c2ccccc21)Nc1cccc(C(F)(F)F)c1
- IC50 [3]: 2.41 µM (active)
- IC50 (Genome polyprotein): 35.3 µM (active)
- IC50 (Beta-galactosidase): > 66.6 µM (inactive)

SMILES: CCc1cc2cc(C(=O)Nc3ccc(C)cc3)sc2s1
- EC50 [4]: 28.1 µM (not active)
- EC50 [5]: 50.4 µM (not active)
- IC50 [6]: 2.25 µM (active)
- IC50 [7]: > 39.8 µM (not active)
- EC50 [8]: 50.8 µM (not active)

SMILES: C=CCn1c(SCc2cc(=O)n3ccsc3n2)nnc1C1CCCCC1
- IC50 (Bcl-2-like protein 10): 61.5 µM (inactive)

SMILES: Cc1cnc(C(=O)NNC(=O)c2ccc(Br)cc2)cn1
- CC50 [9]: 14.6 µM (active)
- IC50 (cells [10]): 23.2 µM (active)
- EC50 [11]: 9.68 µM (active)
- CC50 [12]: 26.3 µM (active)
- CC50 [13]: > 20 µM (active)
- EC50 [14]: > 300 µM (not active)

SMILES: CC1(C)Cc2c(sc(NC(=O)c3ccccc3)c2C(=O)O)CO1
- IC50 (HEK293): > 20 µM (inactive)
- IC50 [1]: > 20 µM (inactive)
- IC50 (Tumor necrosis factor): > 20 µM (inactive)
- IC50 [2]: > 20 µM (inactive)

SMILES: CC(C)(C)c1ccc(NC(=O)COc2ccc(-n3ccnc3)cc2)cc1
- EC50 [15]: > 60 µM (not active)
- AC50 [16]: 10 µM (active)
- EC50 [17]: > 50 µM (active)
- AC50 [18]: 5.27 µM (active)
- IC50 (cells [10]): 26.1 µM (active)
- AC50 [19]: 43.1 µM (active)
- CC50 [13]: > 20 µM (active)
- EC50 [20]: 1.27 µM (active)

SMILES: CC1=CC(C)(C)N(C(=O)c2ccc(F)cc2)c2cc3c(cc21)OCO3
- Absolute IC50 (XBP1) (X-box-binding protein 1): 10 µM

SMILES: COc1cccc(CNC(=O)CCCn2c(=S)[nH]c3cc4c(cc3c2=O)OCO4)c1
- EC50 (cells [21]): 54.4 µM (active)
- IC50 [6]: 4.26 µM (active)
- IC50 [7]: > 39.8 µM (not active)
- EC50 (cells [22]): > 350 µM (not active)

SMILES: CC(=O)Nc1nc2ccccc2n1S(=O)(=O)c1ccc(Cl)cc1
- IC50 (HEK293): > 20 µM (inactive)
- IC50 [1]: > 20 µM (inactive)
- IC50 (Tumor necrosis factor): > 20 µM (inactive)
- IC50 [2]: 4.56 µM (active)

SMILES: O=[N+]([O-])c1ccc(-c2nn(-c3ccccc3)cc2/C=N/n2c(S)nnc2-c2cccs2)cc1
- Absolute IC50 (XBP1) (X-box-binding protein 1): 10 µM

SMILES: C/C(=N/NC(=S)Nc1ccccc1)c1ccc2c(c1)OCO2
- IC50 (Beta-galactosidase): > 66.6 µM (inactive)

SMILES: C/C(=N\Nc1nc2ccccc2[nH]1)c1cc2ccccc2o1
- CC50 [9]: > 20 µM (active)
- IC50 (cells [10]): 1.28 µM (active)
- CC50 [12]: > 40 µM (active)

SMILES: COc1cc(/C=N/NC(=O)NC2CCCCC2)ccc1O
- IC50 (Large T antigen): 7.16 µM (active)
